The record followed here is PMC12254070, “Antimicrobial Peptides Design Using Deep Learning and Rational Modifications: Activity in Bacteria, Candida albicans, and Cancer Cells” (Current Microbiology, 2025).

Like-named read-outs stand apart in the source and are kept apart here. Ends that are not written are not given here.

One data set relates to C. albicans ATCC 10231. In kind it is cell-based, Candida albicans. Here is the method:
(§1) The antimicrobial activity of the peptides was evaluated with S. aureus ATCC 25923, P. aeruginosa ATCC 27853, Escherichia coli ATCC 25922, Klebsiella quasipneumoniae ATCC 700603, and the yeast C. albicans ATCC 10231. The minimum inhibitory concentration (MIC) was determined following the protocol described by Wiegand et al.. Briefly, bacteria were grown overnight in Mueller–Hinton (MH) medium at 37 °C and 90 rpm, while C. albicans was grown at 30 °C in MH supplemented with 30% YPD (yeast extract, peptone, dextrose). The concentration of bacteria and C. albicans was adjusted to 10^6 CFU/mL. […] Microorganism growth was measured hourly at 600 nm for 24 h, with a 10-s shaking cycle, on a Multiskan Go microplate reader (Thermo Scientific). The experiments with bacteria were incubated at 37 °C, whereas those with C. albicans were incubated at 30 °C. Each peptide was evaluated by duplicate on 2 different days. The MIC was estimated as the minimum peptide concentration at which the microorganism had no growth. […] In all assays, untreated culture medium without peptides was included as a negative control to account for basal microbial growth. All assays were performed in two independent experiments, each conducted with two technical replicates (n = 4 per condition).

Data set [1] has as its system Escherichia coli ATCC 25922. It counts as cell-based. Here is the method:
as §1

The test system of data set [2] is Klebsiella quasipneumoniae ATCC 700603. It counts as cell-based. Here is the method:
as §1

A further data set has as its system S. aureus ATCC 25923. In kind it is cell-based, Staphylococcus aureus. Here is the method: as §1
For a further data set, the system named is P. aeruginosa ATCC 27853. In kind it is cell-based, Pseudomonas aeruginosa. Here is the method:
as §1

Data set [3] relates to human breast adenocarcinoma (MCF-7) cells. It counts as cell-based. On the procedure:
(§2) The methodology proposed by Zhang et al. […] After 24 h of incubation, the wells were washed twice with PBS, and 10 μL of MTT solution was added to each well at a final concentration of 0.5 mg/mL, and the cell cultures were incubated for 4 h at 37 °C. The solution was removed from each well, and the formazan crystals were dissolved with 100 μL of Sodium Dodecyl Sulfate (0.01 M). After 16 h, absorbance was measured with a MultiSkan Go microplate reader at 570 nm. The untreated wells were used as a negative control, while wells treated with DMSO were used as a positive control for cytotoxicity. The percent viability was determined using the following equation. %viability=[…]-×100% where ABSM is the average absorbance with the treatment and ABSC is the absorbance obtained in the controls (positive and negative).

Data set [4] concerns human lung adenocarcinoma (A549) cells. It counts as cell-based. On the procedure:
as §2

The test system of data set [5] is human red blood cells. The following applies: red cells of human, 3 h.
Data set [6] deals with human red blood cells. Description: Hemolysis assay. The following applies: human erythrocytes 1:10 in 0.9% PBS, 50 µM peptide, 37 °C, 3 h, OD 545 nm, 0.1% Triton X-100 = positive control, three replicate wells.
Where [7] appears, read: Mueller–Hinton, 10^6 CFU/mL, 37 °C, 24 h, OD 600 nm, minimum concentration with no growth, n = 4.
[8] abbreviates: minimum bactericidal concentration, value in brackets.

As usually defined, the IC50 is the concentration needed to halve the response being measured. AGLARKWLKLPIGVLAR [OrP1]: in the data set on C. albicans ATCC 10231 (ATCC 10231, 24 h), half-maximal inhibition (IC50) was put at 14.8 µM and the “MFC C.a” value came to 49.7 µM. In data set [1] (ATCC 25922, 24 h), the IC50 came to 5.8 µM, the MBC E.c came to 12.4 µM and the MIC E.c is 12.4 µM. For the same sequence, in [2] (ATCC 700603, 24 h), the IC50 amounted to 22.4 µM, the “MBC K.q” value is above 99.3 µM and the “MIC K.q” value is given as 49.7 µM. Further, in the data set with S. aureus ATCC 25923 (ATCC 25923, 24 h), the IC50 came to 24.2 µM, the “MBC S.a” value was > 99.3 (> 99.3) µM and the “MIC S.a” value is given as > 99.3 (> 99.3) µM. Also, in the data set with P. aeruginosa ATCC 27853 (ATCC 27853, 24 h), the IC50 was determined as 14.8 µM, the “MBC P.a” value was determined as 99.3 µM and the “MIC P.a” value came out at 49.7 µM. In data set [3] (24 h), this sequence came in with an IC50 of 9.1 µM. Further, the IC50 in data set [4] (24 h) was found to be 21.7 µM. Further, the “% Hemolysis at 50 µM” value in the data set with human red blood cells [5] is recorded as 1.2%.

Take AGLKKLAKKLGKVVL [OrP3]: in the data set on C. albicans ATCC 10231 (ATCC 10231, 24 h), the IC50 turned out to be 9.6 µM and the “MFC C.a” value was determined as 27.8 µM. In data set [1] (ATCC 25922, 24 h), the IC50 was 1.6 µM, the MBC E.c came out at 3.5 µM and the MIC E.c is 3.5 µM. Besides, in data set [2] (ATCC 700603, 24 h), the IC50 came out at 6 µM, the “MBC K.q” value came to 27.8 µM and the “MIC K.q” value came to 13.9 µM. Also, in the data set on S. aureus ATCC 25923 (ATCC 25923, 24 h), the midpoint of inhibition, the IC50, lay at 10.1 µM; the MBC S.a stood at 27.8 µM; the MIC S.a was 27.8 µM. In the data set on P. aeruginosa ATCC 27853 (ATCC 27853, 24 h), it took 9.6 µM to reach half-maximal inhibition (IC50), the MBC P.a came out at 13.9 µM and the MIC P.a stood at 13.9 µM. The IC50 in data set [3] (24 h) stood at 23.2 µM. In [4] (24 h), the IC50 was 33.1 µM. For the same sequence, in the data set with human red blood cells [5], the “% Hemolysis at 50 µM” value came to 0.0%.

In the case of AIVKKIGKIWKNFIK [VeP2M], in the data set on C. albicans ATCC 10231 (ATCC 10231, 24 h), inhibition was half-maximal at 5.9 µM (IC50) and the “MFC C.a” value came to 31.3 µM. In data set [1] (ATCC 25922, 24 h), this sequence displayed an IC50 of 1.6 µM, an MBC E.c of 3.9 µM and an MIC E.c of 3.9 µM. In data set [2] (ATCC 700603, 24 h), inhibition was half-maximal at 9.2 µM (IC50), the “MBC K.q” value is 62.6 µM and the “MIC K.q” value was found to be 31.3 µM. In addition, in the data set on S. aureus ATCC 25923 (ATCC 25923, 24 h), the IC50 was 7.9 µM, the “MBC S.a” value worked out at 31.3 µM and the “MIC S.a” value is 15.6 µM. Further, in the data set on P. aeruginosa ATCC 27853 (ATCC 27853, 24 h), the IC50 came out at 5.9 µM, the “MBC P.a” value amounted to 15.6 µM and the “MIC P.a” value stood at 7.8 µM. Further, in data set [3] (24 h), it took 21.9 µM to reach half-maximal inhibition (IC50). In data set [4] (24 h), this sequence returned an IC50 of 34.9 µM. For the same sequence, in the data set on human red blood cells [5], the “MHC (minimum hemolytic concentration)” value is 68.64 µM and the “% Hemolysis at 50 µM” value stood at 7.1%.

Regarding IKKWGKVLKKLI [VeP1M], the “MIC C.a” value with C. albicans ATCC 10231 (MH + 30% YPD, 10^6 CFU/mL, 30 °C, 24 h, OD 600 nm, minimum concentration with no growth, n = 4) was found to be 15.2 µM. The IC50 with C. albicans ATCC 10231 (half inhibitory concentration against the microorganism, Table S4, dose-response curves, read-out: IC50 C.a.) came to 10 µM; in data set [1] (half inhibitory concentration against the microorganism, Table S4, dose-response curves, read-out: IC50 E.c.), 3.7 µM; in data set [2] (half inhibitory concentration against the microorganism, Table S4, dose-response curves, read-out: IC50 K.q.) it was 6.8 µM; with S. aureus ATCC 25923 (half inhibitory concentration against the microorganism, Table S4, dose-response curves, read-out: IC50 S.a.), 8.3 µM; in the data set on P. aeruginosa ATCC 27853 (half inhibitory concentration against the microorganism, Table S4, dose-response curves, read-out: IC50 P.a.), 10 µM; in [3] (MTT, 24 h incubation with peptide, triplicate, non-linear regression, read-out: IC50 MCF-7), 13.6 µM. The IC50 in data set [4] (MTT, 24 h incubation with peptide, triplicate, non-linear regression, read-out: IC50 A549) was 35 µM. The “MFC C.a” value in the data set with C. albicans ATCC 10231 (minimum fungicide concentration, value in brackets) worked out at 30.3 µM. The same sequence showed an MIC E.c in data set [1] (setting [7]) of 7.6 µM. For the same sequence, the MBC E.c in [1] (setting [8]) is 7.6 µM. In [2] (setting [7]), this sequence showed an MIC K.q of 30.4 µM. For the same sequence, the MBC K.q in [2] (setting [8]) amounted to 30.4 µM. For the same sequence, the MIC S.a in the data set on S. aureus ATCC 25923 (setting [7]) was 15.2 µM. This sequence also displayed an MBC S.a against S. aureus ATCC 25923 (setting [8]) of 15.2 µM. In addition, the MIC P.a with P. aeruginosa ATCC 27853 (setting [7]) was found to be 3.8 µM. This sequence had an MBC P.a against P. aeruginosa ATCC 27853 (setting [8]) of 3.8 µM. Also, the “% Hemolysis at 50 µM” value in the data set with human red blood cells [6] was determined as 0.0%.

IKPVVKGIKGVKNFFK [VeP2]: in the data set on C. albicans ATCC 10231 (ATCC 10231, 24 h), the IC50 came out at 23.7 µM and the “MFC C.a” value is on record as above 102.9 µM. In [1] (ATCC 25922, 24 h), the IC50 worked out at 22.8 µM, the MBC E.c was 103 µM and the MIC E.c is 103 µM. Also, in [2] (ATCC 700603, 24 h), the IC50 was determined as 30.7 µM, the MBC K.q was above 103 µM and the MIC K.q amounted to 103 µM. Also, in the data set with S. aureus ATCC 25923 (ATCC 25923, 24 h), the IC50 is 53.2 µM, the “MBC S.a” value was above 102.9 µM and the “MIC S.a” value stood at 51.5 µM. Also, in the data set with P. aeruginosa ATCC 27853 (ATCC 27853, 24 h), the IC50 was 21.9 µM, the “MBC P.a” value turned out to be 102.9 µM and the “MIC P.a” value worked out at 51.5 µM. For the same sequence, the IC50 in [3] (24 h) was 34.2 µM. The same sequence came in with an IC50 in data set [4] (24 h) of 69.6 µM. Besides, the “% Hemolysis at 50 µM” value in the data set with human red blood cells [5] came to 3.0%.
